From patent US8232401B2 (Japan Tobacco Inc., priority 2002, dated 2012) come the findings set out here.

Structures are written as SMILES.

The assay concerns the target T1, HIV integrase (Human immunodeficiency virus type 1 group M subtype B, UniProt P12497, F1332H).
T1 construct: HIV integrase full length gene; made in house; host or cells: Escherichia coli BL21(DE3)
The assay can be described thus: Determination of enzyme (HIV integrase) inhibitory activity (strand transfer, microtiter plate, absorbance at 450 nm). The assay is classed as biochemical, HIV (Human Immunodeficiency Virus (type 1)). The following applies: recombinant HIV integrase (F185H) expressed in E. coli; donor DNA on streptavidin plate, digoxigenin target DNA; 37° C.
For the compound `CCOc1cc2c(cc1Cc1cccc(Cl)c1F)c(=O)c(C(=O)O)cn2CCO` [Example 3-44, 6-(3-Chloro-2-fluorobenzyl)-7-ethoxy-1-(2-hydroxyethyl)-4-oxo-1,4-dihydroquinoline-3-carboxylic acid], the IC50 stood at 9.6 nM.

As for `COc1c(Cc2cccc(Cl)c2F)cc2c(=O)c(C(=O)O)cn(CCO)c2c1OC` [Example 3-45, 6-(3-Chloro-2-fluorobenzyl)-7,8-dimethoxy-1-(2-hydroxyethyl)-4-oxo-1,4-dihydroquinoline-3-carboxylic acid], the IC50 was determined as 15 nM.

For the compound `CCOc1cc(Cc2cccc(Cl)c2F)cc2c(=O)c(C(=O)O)cn(CCO)c12` [Example 3-47, 6-(3-Chloro-2-fluorobenzyl)-8-ethoxy-1-(2-hydroxyethyl)-4-oxo-1,4-dihydroquinoline-3-carboxylic acid], the IC50 amounted to 8.6 nM.

Regarding `CNc1cc(Cc2cccc(Cl)c2F)cc2c(=O)c(C(=O)O)cn(CCO)c12` [Example 3-48, 6-(3-Chloro-2-fluorobenzyl)-1-(2-hydroxyethyl)-8-methylamino-4-oxo-1,4-dihydroquinoline-3-carboxylic acid], the IC50 amounted to 21 nM.

With `CCCOc1cc2c(cc1Cc1cccc(Cl)c1F)c(=O)c(C(=O)O)cn2CCO` [Example 3-49, 6-(3-Chloro-2-fluorobenzyl)-1-(2-hydroxyethyl)-4-oxo-7-propyloxy-1,4-dihydroquinoline-3-carboxylic acid], the IC50 worked out at 7.9 nM.

For the compound `CN(C)/C=N/c1cc2c(cc1Cc1cccc(Cl)c1F)c(=O)c(C(=O)O)cn2CCO` [Example 3-50, 6-(3-Chloro-2-fluorobenzyl)-7-(dimethylaminomethyleneamino)-1-(2-hydroxyethyl)-4-oxo-1,4-dihydroquinoline-3-carboxylic acid], the IC50 is 18 nM.

For `O=C(O)c1cn(CCO)c2c(Oc3ccccc3)cc(Cc3cccc(Cl)c3F)cc2c1=O` [Example 3-52, 6-(3-Chloro-2-fluorobenzyl)-1-(2-hydroxyethyl)-4-oxo-8-phenoxy-1,4-dihydroquinoline-3-carboxylic acid], the IC50 is 12 nM.

Turning to `CC(C)Oc1cc2c(cc1Cc1cccc(Cl)c1F)c(=O)c(C(=O)O)cn2CCO` [Example 3-53, 6-(3-Chloro-2-fluorobenzyl)-1-(2-hydroxyethyl)-7-isopropyloxy-4-oxo-1,4-dihydroquinoline-3-carboxylic acid], the IC50 stood at 7.9 nM.

As to `CCCNc1cc(Cc2cccc(Cl)c2F)cc2c(=O)c(C(=O)O)cn(CCO)c12` [Example 3-54, 6-(3-Chloro-2-fluorobenzyl)-1-(2-hydroxyethyl)-4-oxo-8-propylamino-1,4-dihydroquinoline-3-carboxylic acid], the IC50 turned out to be 6.4 nM.

`CCNc1cc(Cc2cccc(Cl)c2F)cc2c(=O)c(C(=O)O)cn(CCO)c12` [Example 3-55, 6-(3-Chloro-2-fluorobenzyl)-8-ethylamino-1-(2-hydroxyethyl)-4-oxo-1,4-dihydroquinoline-3-carboxylic acid]: the IC50 stood at 8.7 nM.

Consider `COc1cc(Cc2cccc(Cl)c2F)cc2c(=O)c(C(=O)O)cn([C@@H](C)CO)c12` [Example 3-56, (S)-6-(3-Chloro-2-fluorobenzyl)-1-(2-hydroxy-1-methylethyl)-8-methoxy-4-oxo-1,4-dihydroquinoline-3-carboxylic acid], for which the IC50 stood at 12 nM.

Turning to `COc1cc(Cc2c(F)ccc(Cl)c2F)cc2c(=O)c(C(=O)O)cn([C@@H](C)CO)c12` [Example 3-57, (S)-6-(3-Chloro-2,6-difluorobenzyl)-1-(2-hydroxy-1-methylethyl)-8-methoxy-4-oxo-1,4-dihydroquinoline-3-carboxylic acid], the IC50 worked out at 15 nM.

For `CCCOc1cc(Cc2cccc(Cl)c2F)cc2c(=O)c(C(=O)O)cn(CCO)c12` [Example 3-58, 6-(3-Chloro-2-fluorobenzyl)-1-(2-hydroxyethyl)-4-oxo-8-propyloxy-1,4-dihydroquinoline-3-carboxylic acid], the IC50 stood at 8 nM.

`CC(C)Oc1cc(Cc2cccc(Cl)c2F)cc2c(=O)c(C(=O)O)cn(CCO)c12` [Example 3-59, 6-(3-Chloro-2-fluorobenzyl)-1-(2-hydroxyethyl)-8-isopropyloxy-4-oxo-1,4-dihydroquinoline-3-carboxylic acid]: the half-inhibitory concentration (IC50) worked out at 8 nM.

On to `CC[C@@H](CO)n1cc(C(=O)O)c(=O)c2cc(Cc3cccc(Cl)c3F)ccc21` [Example 3-60, (S)-6-(3-Chloro-2-fluorobenzyl)-1-[1-(hydroxymethyl)propyl]-4-oxo-1,4-dihydroquinoline-3-carboxylic acid], for which the concentration for half-maximal inhibition (IC50) was 5.5 nM.

In the case of `CCOc1cc2c(cc1Cc1cccc(Cl)c1F)c(=O)c(C(=O)O)cn2[C@@H](C)CO` [Example 3-61, (S)-6-(3-Chloro-2-fluorobenzyl)-7-ethoxy-1-(2-hydroxy-1-methylethyl)-4-oxo-1,4-dihydroquinoline-3-carboxylic acid], the IC50 came to 7.6 nM.

For the compound `CN(C)c1cc2c(cc1Cc1cccc(Cl)c1F)c(=O)c(C(=O)O)cn2CCO` [Example 3-62, 6-(3-Chloro-2-fluorobenzyl)-7-dimethylamino-1-(2-hydroxyethyl)-4-oxo-1,4-dihydroquinoline-3-carboxylic acid], the IC50 stood at 27 nM.

In the case of `O=C(O)c1cn(CCO)c2cc(OCC3CCCCC3)c(Cc3cccc(Cl)c3F)cc2c1=O` [Example 3-63, 6-(3-Chloro-2-fluorobenzyl)-7-cyclohexylmethoxy-1-(2-hydroxyethyl)-4-oxo-1,4-dihydroquinoline-3-carboxylic acid], the IC50 was 17 nM.

In the case of `CCN(CC)c1cc(Cc2cccc(Cl)c2F)cc2c(=O)c(C(=O)O)cn(CCO)c12` [Example 3-64, 6-(3-Chloro-2-fluorobenzyl)-8-diethylamino-1-(2-hydroxyethyl)-4-oxo-1,4-dihydroquinoline-3-carboxylic acid], the IC50 was 18 nM.

Regarding `CNc1cc2c(cc1Cc1cccc(Cl)c1F)c(=O)c(C(=O)O)cn2CCO` [Example 3-65, 6-(3-Chloro-2-fluorobenzyl)-7-methylamino-1-(2-hydroxyethyl)-4-oxo-1,4-dihydroquinoline-3-carboxylic acid], the 50% inhibitory concentration (IC50) turned out to be 15 nM.

Regarding `O=C(O)c1cn(CCO)c2cc(N3CCCC3)c(Cc3cccc(Cl)c3F)cc2c1=O` [Example 3-66, 6-(3-Chloro-2-fluorobenzyl)-1-(2-hydroxyethyl)-4-oxo-7-pyrrolidin-1-yl-1,4-dihydroquinoline-3-carboxylic acid], the IC50 turned out to be 48 nM.

As to `CCOc1cc(Cc2cccc(Cl)c2F)cc2c(=O)c(C(=O)O)cn([C@@H](C)CO)c12` [Example 3-67, (S)-6-(3-Chloro-2-fluorobenzyl)-8-ethoxy-1-(2-hydroxy-1-methylethyl)-4-oxo-1,4-dihydroquinoline-3-carboxylic acid], the IC50 came out at 6.4 nM.

Take `O=C(O)c1cn(CCO)c2c(OCC3CCCCC3)cc(Cc3cccc(Cl)c3F)cc2c1=O` [Example 3-69, 6-(3-Chloro-2-fluorobenzyl)-8-cyclohexylmethoxy-1-(2-hydroxyethyl)-4-oxo-1,4-dihydroquinoline-3-carboxylic acid]: the IC50 stood at 4.3 nM.

For `CC[C@@H](CO)n1cc(C(=O)O)c(=O)c2cc(Cc3cccc(Cl)c3F)c(OC(C)C)cc21` [Example 3-72, (S)-6-(3-Chloro-2-fluorobenzyl)-1-[1-(hydroxymethyl)propyl]-7-isopropyloxy-4-oxo-1,4-dihydroquinoline-3-carboxylic acid], the IC50 was 3.8 nM.

Consider `CC[C@@H](CO)n1cc(C(=O)O)c(=O)c2cc(Cc3cccc(Cl)c3F)c(OC)cc21` [Example 3-73, (S)-6-(3-Chloro-2-fluorobenzyl)-1-[1-(hydroxymethyl)propyl]-7-methoxy-4-oxo-1,4-dihydroquinoline-3-carboxylic acid], for which the IC50 was found to be 3.3 nM.

Turning to `CC(C)Oc1cc2c(cc1Cc1cccc(Cl)c1F)c(=O)c(C(=O)O)cn2[C@@H](C)CO` [Example 3-74], the IC50 came to 4.9 nM.

As for `O=C(O)c1cn(CCO)c2cc(OCCO)c(Cc3cccc(Cl)c3F)cc2c1=O` [Example 3-76, 6-(3-Chloro-2-fluorobenzyl)-1-(2-hydroxyethyl)-7-(2-hydroxyethyloxy)-4-oxo-1,4-dihydroquinoline-3-carboxylic acid], the IC50 was found to be 8.5 nM.

`O=C(O)c1cn(CCO)c2cc(OCCCO)c(Cc3cccc(Cl)c3F)cc2c1=O` [Example 3-77, 6-(3-Chloro-2-fluorobenzyl)-1-(2-hydroxyethyl)-1-7-(3-hydroxypropyloxy)-4-oxo-1,4-dihydroquinoline-3-carboxylic acid]: the IC50 came to 8.9 nM.

Regarding `O=C(O)c1cn(CCO)c2c(NCCO)cc(Cc3cccc(Cl)c3F)cc2c1=O` [Example 3-78, 6-(3-Chloro-2-fluorobenzyl)-1-(2-hydroxyethyl)-8-(2-hydroxyethylamino)-4-oxo-1,4-dihydroquinoline-3-carboxylic acid], the IC50 amounted to 16 nM.

With `CC[C@@H](CO)n1cc(C(=O)O)c(=O)c2cc(Cc3cccc(Cl)c3F)cc(OC)c21` [Example 3-79, (S)-6-(3-Chloro-2-fluorobenzyl)-1-[1-(hydroxymethyl)propyl]-8-methoxy-4-oxo-1,4-dihydroquinoline-3-carboxylic acid], the IC50 was 6.7 nM.

For `C[C@@H](CO)n1cc(C(=O)O)c(=O)c2cc(Cc3cccc(Cl)c3F)cc(N(C)C)c21` [Example 3-80, (S)-6-(3-Chloro-2-fluorobenzyl)-8-dimethylamino-1-(2-hydroxy-1-methylethyl)-4-oxo-1,4-dihydroquinoline-3-carboxylic acid], the IC50 was found to be 8.8 nM.

In the case of `O=C(O)c1cn(CCO)c2ncc(Cc3cccc(Cl)c3Cl)cc2c1=O` [Example 3-86], the IC50 came to 140 nM.

In the case of `CS(=O)(=O)c1ccc(Cl)c(Cc2ccc3c(c2)c(=O)c(C(=O)O)cn3CCO)c1` [Example 4-1, 6-(2-Chloro-5-methanesulfonylbenzyl)-1-(2-hydroxyethyl)-4-oxo-1,4-dihydroquinoline-3-carboxylic acid], the IC50 was 860 nM.

For `CCc1ccccc1Cc1ccc2c(c1)c(=O)c(C(=O)O)cn2CCO` [Example 4-4, 6-(2-Ethylbenzyl)-1-(2-hydroxyethyl)-4-oxo-1,4-dihydroquinoline-3-carboxylic acid], the IC50 turned out to be 550 nM.
